How the values were obtained:
[1] = target: T1, Nuclear receptor subfamily 1 group I member 2 (Homo sapiens, UniProt O75469); test: Activation of PXR (unknown origin)
T1 sequence (O75469 whole entry): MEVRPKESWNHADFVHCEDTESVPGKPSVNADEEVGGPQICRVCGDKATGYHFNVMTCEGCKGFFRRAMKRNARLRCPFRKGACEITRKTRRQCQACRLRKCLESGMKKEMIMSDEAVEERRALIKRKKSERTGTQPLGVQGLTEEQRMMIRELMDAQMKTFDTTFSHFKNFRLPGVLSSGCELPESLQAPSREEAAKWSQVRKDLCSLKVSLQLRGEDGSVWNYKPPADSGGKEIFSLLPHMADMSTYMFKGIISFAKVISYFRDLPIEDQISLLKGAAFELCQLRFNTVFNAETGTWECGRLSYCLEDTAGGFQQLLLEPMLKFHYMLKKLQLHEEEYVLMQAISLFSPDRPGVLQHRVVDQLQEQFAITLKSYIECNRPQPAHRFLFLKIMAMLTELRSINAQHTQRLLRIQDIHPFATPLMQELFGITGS

[2] = target: T2, PXR (Homo sapiens, UniProt O75469); test: (§1) Activation of PXR (unknown origin) relative to rifampicin; settings: read-out: %max
T2 sequence (O75469 whole entry): T1 sequence (O75469 whole entry)

[3] = Metabolic stability in human liver microsomes assessed as parent compound remaining incubated for 10 mins; format: ADME, Microsome; settings: read-out: Stabilty
[4] = Metabolic stability in mouse liver microsomes assessed as parent compound remaining incubated for 10 mins; format: ADME, Microsome; settings: read-out: Stabilty
[5] = target: T3, Nuclear receptor ROR-alpha (Homo sapiens, UniProt P35398); test: Inverse agonist activity at ROR-alpha (unknown origin) expressed in Jurkat cells by gal4 reporter assay; format: cell-based
T3 sequence (P35398 whole entry): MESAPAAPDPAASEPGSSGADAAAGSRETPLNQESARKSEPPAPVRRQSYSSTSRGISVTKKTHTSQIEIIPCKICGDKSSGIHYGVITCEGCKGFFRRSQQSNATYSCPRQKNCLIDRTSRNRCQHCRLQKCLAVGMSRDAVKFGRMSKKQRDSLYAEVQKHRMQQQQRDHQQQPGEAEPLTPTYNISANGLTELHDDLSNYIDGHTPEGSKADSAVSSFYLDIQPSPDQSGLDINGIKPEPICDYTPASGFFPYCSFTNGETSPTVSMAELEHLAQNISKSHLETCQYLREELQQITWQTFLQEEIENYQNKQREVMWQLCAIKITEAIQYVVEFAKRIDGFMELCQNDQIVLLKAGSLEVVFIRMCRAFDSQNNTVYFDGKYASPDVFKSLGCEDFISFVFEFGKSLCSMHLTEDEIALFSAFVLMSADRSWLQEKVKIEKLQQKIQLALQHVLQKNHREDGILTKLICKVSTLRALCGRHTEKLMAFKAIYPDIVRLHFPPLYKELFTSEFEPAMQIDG

[6] = target: T4, Nuclear receptor ROR-beta (Homo sapiens, UniProt Q92753); test: Inverse agonist activity at ROR-beta (unknown origin) expressed in Jurkat cells by gal4 reporter assay; format: cell-based
T4 sequence (Q92753 whole entry): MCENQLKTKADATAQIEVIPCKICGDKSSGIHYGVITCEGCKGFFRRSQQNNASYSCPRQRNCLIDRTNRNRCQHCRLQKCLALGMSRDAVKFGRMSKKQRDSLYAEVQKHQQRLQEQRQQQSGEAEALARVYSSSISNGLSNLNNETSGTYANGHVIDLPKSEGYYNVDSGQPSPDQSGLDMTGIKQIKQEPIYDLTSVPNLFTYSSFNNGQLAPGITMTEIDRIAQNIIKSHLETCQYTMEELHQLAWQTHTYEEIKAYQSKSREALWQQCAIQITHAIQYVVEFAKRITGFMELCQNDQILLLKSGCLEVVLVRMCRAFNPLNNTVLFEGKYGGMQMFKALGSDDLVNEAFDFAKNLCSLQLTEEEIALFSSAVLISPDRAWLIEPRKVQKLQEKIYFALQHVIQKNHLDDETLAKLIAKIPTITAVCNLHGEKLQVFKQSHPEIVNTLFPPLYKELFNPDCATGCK

[7] = target: T5, Nuclear receptor ROR-gamma (Homo sapiens, UniProt P51449); test: Inverse agonist activity at RORgammat (unknown origin) expressed in Jurkat cells by reporter assay; format: cell-based
T5 sequence (P51449 whole entry): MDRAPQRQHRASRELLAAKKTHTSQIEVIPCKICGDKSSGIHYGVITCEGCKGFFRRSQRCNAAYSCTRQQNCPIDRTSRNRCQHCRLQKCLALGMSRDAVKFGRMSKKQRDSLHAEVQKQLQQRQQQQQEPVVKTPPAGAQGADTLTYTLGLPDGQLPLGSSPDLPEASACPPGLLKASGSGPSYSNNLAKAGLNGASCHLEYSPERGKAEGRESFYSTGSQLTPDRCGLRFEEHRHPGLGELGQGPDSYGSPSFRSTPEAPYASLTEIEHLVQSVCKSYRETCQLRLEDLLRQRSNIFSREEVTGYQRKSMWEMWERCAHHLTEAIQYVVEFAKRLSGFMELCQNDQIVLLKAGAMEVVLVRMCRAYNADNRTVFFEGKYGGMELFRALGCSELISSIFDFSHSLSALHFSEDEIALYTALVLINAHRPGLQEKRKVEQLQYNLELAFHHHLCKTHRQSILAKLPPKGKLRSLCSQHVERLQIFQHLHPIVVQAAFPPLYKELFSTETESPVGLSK

[8] = target: T1, Nuclear receptor subfamily 1 group I member 2; test: as §1

Row | SMILES | EC50 [1] | Emax [2] | remaining at 10 min [3] | remaining at 10 min [4] | EC50 [5] | EC50 [6] | EC50 [7] | %max [8]
1 | C[C@]1(c2ccc(F)cc2)CN(C(=O)C2CCN(C(=O)CC#N)CC2)C[C@H]1c1ccc(C(O)(C(F)(F)F)C(F)(F)F)cc1 | 0.495 µM | 46% | 80% | 79% | > 40 µM | > 40 µM |  | 
2 | C[C@]1(c2ccc(F)cc2)CN(C(=O)C2CCN(C(N)=O)CC2)C[C@H]1c1ccc(C(O)(C(F)(F)F)C(F)(F)F)cc1 | 1.06 µM | 72% | 97% | 100% |  |  |  | 
3 | C[C@]1(c2ccccc2)CN(C(=O)c2ccccc2)C[C@H]1c1ccc(C(O)(C(F)(F)F)C(F)(F)F)cc1 (racemic) | 0.74 µM | 93% |  |  |  |  |  | 
4 | C[C@]1(c2ccc(F)cc2)CN(C(=O)C2CCN(C(=O)C(N)=O)CC2)C[C@H]1c1ccc(C(O)(C(F)(F)F)C(F)(F)F)cc1 | 0.995 µM | 73% | 91% | 87% |  |  |  | 
5 | COc1ccc(CNC(=O)N2C[C@@H](c3ccc(C(O)(C(F)(F)F)C(F)(F)F)cc3)[C@@](C)(c3ccc(F)cc3)C2)cc1 | 0.189 µM | 84% | 68% | 67% |  |  |  | 
6 | CC(=O)N1CCC(C(=O)N2C[C@@H](c3ccc(C(O)(C(F)(F)F)C(F)(F)F)cc3)[C@@](C)(c3ccccc3)C2)CC1 |  |  | 89% | 75% |  |  |  | 
7 | C[C@]1(c2ccc(F)cc2)CN(C(=O)NCc2ccc3c(c2)OCO3)C[C@H]1c1ccc(C(O)(C(F)(F)F)C(F)(F)F)cc1 |  |  | 54% | 65% |  |  |  | 
8 | C[C@]1(c2ccc(F)cc2)CN(C(=O)C2CCN(C(=O)CO)CC2)C[C@H]1c1ccc(C(O)(C(F)(F)F)C(F)(F)F)cc1 |  |  | 86% | 82% |  |  |  | 
9 | CC(=O)N1CCC(C(=O)N2C[C@H](c3ccc(C(O)(C(F)(F)F)C(F)(F)F)cc3)[C@](C)(c3ccccc3)C2)CC1 |  |  | 74% | 79% |  |  |  | 
10 | CCNC(=O)N1C[C@@H](c2ccc(C(O)(C(F)(F)F)C(F)(F)F)cc2)[C@@](C)(c2ccccc2)C1 (racemic) | 1.78 µM | 73% |  |  |  |  |  | 
11 | C[C@]1(c2ccc(F)cc2)CN(C(=O)NCc2ccncc2)C[C@H]1c1ccc(C(O)(C(F)(F)F)C(F)(F)F)cc1 |  |  | 11% | 1% |  |  |  | 
12 | C[C@@]1(c2ccc(C(O)(C(F)(F)F)C(F)(F)F)cc2)CN(C(=O)NCc2ccccc2)C[C@@H]1c1ccccc1 (racemic) | 0.06 µM | 84% |  |  |  |  |  | 
13 | C[C@]1(c2ccc(F)cc2)CN(C(=O)NCc2ccccc2)C[C@H]1c1ccc(C(O)(C(F)(F)F)C(F)(F)F)cc1 (racemic) | 0.474 µM | 79% |  |  |  |  |  | 
14 | CC(=O)N1CCC(C(=O)N2C[C@@H](c3ccc(C(F)(C(F)(F)F)C(F)(F)F)cc3)[C@@](C)(c3ccc(F)cc3)C2)CC1 | > 50 µM | 15% |  |  |  |  |  | 
15 | C[C@]1(c2ccccc2)CNC[C@H]1c1ccc(C(O)(C(F)(F)F)C(F)(F)F)cc1 (racemic) | 1.25 µM | 39% |  |  |  |  | 7.91 µM | 
16 | C[C@]1(c2ccc(F)cc2)CN(C(=O)C2CCN(S(C)(=O)=O)CC2)C[C@H]1c1ccc(C(O)(C(F)(F)F)C(F)(F)F)cc1 | 0.151 µM | 78% | 90% | 80% |  |  |  | 
17 | C[C@@]1(c2ccc(F)cc2)CN(C(=O)NCc2ccccc2)C[C@@H]1c1ccc(C(O)(C(F)(F)F)C(F)(F)F)cc1 | 0.472 µM | 80% | 58% | 17% |  |  |  | 
18 | CC(=O)N1CCC(C(=O)N2C[C@@H](c3ccc(C(O)(C(F)(F)F)C(F)(F)F)cc3)[C@@](C)(c3ccc(F)cc3)C2)CC1 | 1.08 µM | 61% | 86% | 81% |  |  |  | 
19 | CCS(=O)(=O)c1ccc(CNC(=O)N2C[C@@H](c3ccc(C(O)(C(F)(F)F)C(F)(F)F)cc3)[C@@](C)(c3ccc(F)cc3)C2)cc1 | 0.005 µM | 100% | 32% | 51% |  |  |  | 
20 | C[C@]1(c2ccc(F)cc2)CN(C(=O)NCc2ccccc2)C[C@H]1c1ccc(C(O)(C(F)(F)F)C(F)(F)F)cc1 | 0.559 µM |  | 73% | 67% |  |  |  | 98%
21 | C[C@]1(c2ccccc2)CN(CC(N)=O)C[C@H]1c1ccc(C(O)(C(F)(F)F)C(F)(F)F)cc1 (racemic) | 0.276 µM | 96% |  |  |  |  |  | 
22 | C[C@]1(c2ccccc2)CN(S(C)(=O)=O)C[C@H]1c1ccc(C(O)(C(F)(F)F)C(F)(F)F)cc1 (racemic) | 0.257 µM | 110% |  |  |  |  |  | 
23 | C[C@]1(c2ccc(F)cc2)CN(C(=O)NCc2ccc(C#N)cc2)C[C@H]1c1ccc(C(O)(C(F)(F)F)C(F)(F)F)cc1 |  |  | 76% | 51% |  |  | 0.074 µM | 
24 | CC(=O)N1C[C@@H](c2ccc(C(O)(C(F)(F)F)C(F)(F)F)cc2)[C@@](C)(c2ccccc2)C1 (racemic) | 0.361 µM | 110% |  |  |  |  |  | 
25 | COCC(=O)N1CCC(C(=O)N2C[C@@H](c3ccc(C(O)(C(F)(F)F)C(F)(F)F)cc3)[C@@](C)(c3ccc(F)cc3)C2)CC1 | 1.55 µM | 52% | 54% | 49% |  |  |  | 
